Measured values reported in patent US9890166B2, “Imidazopyrrolidine derivatives and their use in the treatment of disease” (NOVARTIS AG, priority 2013, dated 2018).

Key:
BRD4 (His-Brd4(44-477)) = BRD4 (His-Brd4(44-477)) (Homo sapiens (Human), UniProt O60885); assay: TR-FRET in-vitro binding assay for BRD4; conditions: single determination or n ≧ 2 independent determinations, read-out: Biochemical IC50 BRD4
How it was run: (§1)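 TR-FRET binding with His-tagged bromodomain constructs, 8-point compound dilutions from 10 mM DMSO stocks. Reactions incubated 35 min at 30° C in 13.55 μL, read on an EnVision multilabel reader.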

[1] = target: CREBBP bromodomain (His-CREBBP(1081-1197)) (Homo sapiens (Human), UniProt Q92793); assay: AlphaScreen in-vitro binding assay for CREBBP; conditions: single determination or n ≧ 2 independent determinations, read-out: Biochemical IC50 CREBBP
Sequence of CREBBP bromodomain (His-CREBBP(1081-1197)) (Q92793 1081-1197): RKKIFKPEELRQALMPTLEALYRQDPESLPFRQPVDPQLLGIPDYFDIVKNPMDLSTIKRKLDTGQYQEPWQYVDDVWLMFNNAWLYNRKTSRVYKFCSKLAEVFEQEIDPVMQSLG
How it was run: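 Reactions at 30 °C for 35 min, then Ni-chelate acceptor and streptavidin donor beads in HEPES pH 7.5, NaCl, Tween20, BSA, 60 min at room temperature. Eight-point compound series; IC50 by non-linear regression of percent inhibition.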

K-562 cells = assay: Cell growth inhibition assay (CellTiter-Glo), K-562; conditions: for GI50: Homo sapiens, K562, read-out: K-562 GI50; for K-562 TGI: K-562 cells, total growth inhibition, CellTiter-Glo;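 as to all read-outs here: cellular ATP measured by luminescence after 4 days of exposure, 3-fold dilution series from 10 µM, DMSO vehicle-treated cells define 100%, cell-free medium wells −100%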
THP-1 cells = assay: Cell growth inhibition assay (CellTiter-Glo), THP-1; conditions: for GI50: Homo sapiens, THP-1, read-out: THP-1 GI50; for THP-1 TGI: THP-1 cells, total growth inhibition, CellTiter-Glo;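 as to all read-outs here: viability read as cellular ATP luminescence after 4 days, 3-fold dilution series from 10 µM, DMSO vehicle-treated cells taken as 100%, cell-free medium wells as −100%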
BRD2 (His-Brd2(60-472)) = BRD2 (His-Brd2(60-472)) (Homo sapiens (Human), UniProt P25440); assay: TR-FRET in-vitro binding assay for BRD2; conditions: single determination or n ≧ 2 independent determinations, read-out: Biochemical IC50 BRD2
Sequence of BRD2 (His-Brd2(60-472)) (P25440 60-472): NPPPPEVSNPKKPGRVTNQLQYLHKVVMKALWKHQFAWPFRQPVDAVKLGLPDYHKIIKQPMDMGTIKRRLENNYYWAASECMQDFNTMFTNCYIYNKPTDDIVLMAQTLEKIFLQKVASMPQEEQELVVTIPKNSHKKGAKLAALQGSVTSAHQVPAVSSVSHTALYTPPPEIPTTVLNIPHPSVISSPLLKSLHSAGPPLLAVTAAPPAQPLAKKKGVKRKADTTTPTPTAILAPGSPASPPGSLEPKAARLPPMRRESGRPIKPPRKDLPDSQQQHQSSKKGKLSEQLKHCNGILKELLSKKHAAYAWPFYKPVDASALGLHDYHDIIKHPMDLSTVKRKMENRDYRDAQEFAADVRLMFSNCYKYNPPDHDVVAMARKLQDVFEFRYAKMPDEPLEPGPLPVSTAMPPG
Experimental: TR-FRET In-Vitro Binding Assays for BRD2, BRD3, and BRD4:
All assays were performed in 384 well microtiter plates. Each assay plate contained 8-point serial dilutions for 40 test compounds, plus 16 high- and 16 low controls. Liquid handling and incubation steps were done on an Innovadyne Nanodrop Express equipped with a robotic arm (Thermo CatX, Perkin Elmer/Caliper Twister II) and an incubator (Liconic STX40, Thermo Cytomat 2C450). The assay plates were prepared by addition of 50 nl per well of compound solution in 90% DMSO HummingBird nanodispenser (Zinsser Analytic). […] Reactions were incubated at 30° C. for 35 minutes. […] After 35 minutes incubation at 30° C., plates were measured in a Perkin Elmer EnVision multilabel reader.
Preparation of Compound Dilutions
Test compounds were dissolved in DMSO (10 mM) and transferred into 1.4 mL flat bottom or V-shaped Matrix tubes carrying a unique 2D matrix. The stock solutions were stored at […] if not used immediately. For the test procedure the vials were defrosted and identified by a scanner whereby a working sheet was generated that guided the subsequent working steps.
Compound dilutions were made in 96 well plates. This format enabled the assay of maximally 40 individual test compounds at 8 concentrations (single points) including 4 reference compounds, if desired (known BET inhibitors from the prior art, for this and other assays of the type disclosed herein). The dilution protocol included the production of “pre-dilution plates”, “master plates” and “assay plates”.
Pre-Dilution Plates: 96 polypropylene well plates were used as pre-dilution plates. A total of 4 pre-dilution plates were prepared including 10 test compounds each on the plate positions A1-A10, one standard compound at A11 and one DMSO control at A12. All dilution steps were done on a HamiltonSTAR robot.
These plates were used directly for the assay which was performed in a total volume of 13.55 μL.

MV-4-11 cells = assay: Cell growth inhibition assay (CellTiter-Glo), MV-4-11; conditions: for GI50: Homo sapiens, MV4-11, read-out: MV-4-11 GI50; for MV-4-11 TGI: MV-4-11 cells, total growth inhibition, CellTiter-Glo;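 as to all read-outs here: cellular ATP luminescence after 4 days, 3-fold dilution series from 10 µM top dose, vehicle (0.1% DMSO) set to 100%, cell-free medium set to −100%, day 0 corrected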
BRD3 (His-Brd3(20-477)) = BRD3 (His-Brd3(20-477)) (Homo sapiens (Human), UniProt Q15059); assay: TR-FRET in-vitro binding assay for BRD3; conditions: single determination or n ≧ 2 independent determinations, read-out: Biochemical IC50 BRD3
Sequence of BRD3 (His-Brd3(20-477)) (Q15059 20-477): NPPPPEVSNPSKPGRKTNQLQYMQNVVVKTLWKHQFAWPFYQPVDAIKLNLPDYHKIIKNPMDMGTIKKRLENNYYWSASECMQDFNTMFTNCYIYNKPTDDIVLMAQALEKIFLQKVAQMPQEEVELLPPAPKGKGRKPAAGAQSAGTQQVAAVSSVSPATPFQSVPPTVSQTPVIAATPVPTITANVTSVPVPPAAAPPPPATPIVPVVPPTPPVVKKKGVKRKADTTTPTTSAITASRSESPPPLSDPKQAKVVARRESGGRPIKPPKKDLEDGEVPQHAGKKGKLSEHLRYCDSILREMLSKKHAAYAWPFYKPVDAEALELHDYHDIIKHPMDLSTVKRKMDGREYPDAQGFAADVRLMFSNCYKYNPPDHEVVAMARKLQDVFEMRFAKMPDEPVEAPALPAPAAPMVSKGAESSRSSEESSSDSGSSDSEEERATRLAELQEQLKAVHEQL
How it was run: as §1

SMILES | IC50 (BRD4 (His-Brd4(44-477))) | IC50 [1] | GI50 (K-562 cells) | K-562 TGI (K-562 cells) | GI50 (THP-1 cells) | THP-1 TGI (THP-1 cells) | IC50 (BRD2 (His-Brd2(60-472))) | GI50 (MV-4-11 cells) | MV-4-11 TGI (MV-4-11 cells) | IC50 (BRD3 (His-Brd3(20-477)))
COc1cc(N2C(=O)c3nc(C4CCOCC4)n(C(C)C)c3C2c2ccc(Cl)cc2)cc2c1nnn2C (racemic) [Example 64] | 43 nM | 10200 nM | 156 nM | >10000 nM | 84.3 nM | 155 nM | 120 nM | 35.1 nM | 54.6 nM | 58 nM
COc1ncccc1-c1nc2c(n1C(C)C)C(c1ccc(Cl)cc1)N(c1cc(OC)c3nnn(C)c3c1)C2=O (racemic) [Example 74, 6-(4-chlorophenyl)-1-isopropyl-5-(4-methoxy-1-methyl-1H-benzo[d][1,2,3]triazol-6-yl)-2-(2-methoxypyridin-3-yl)-5,6-dihydropyrrolo[3,4-d]imidazol-4(1H)-one] | 32 nM | 10300 nM | 158 nM | >10000 nM | 57.9 nM | 121 nM | 140 nM | 38.2 nM | 59.25 nM | 61 nM
Cc1cc(N2C(=O)c3nc(C4CC4)n(C(C)C)c3C2c2ccc(Cl)cc2)cn(C)c1=O (stereo not drawn) [Example 28, 6-(4-chlorophenyl)-2-cyclopropyl-5-(1,5-dimethyl-6-oxo-1,6-dihydropyridin-3-yl)-1-isopropyl-5,6-dihydropyrrolo[3,4-d]imidazol-4(1H)-one] | 117 nM | 3400 nM | 908 nM | >10000 nM | 208 nM | 384 nM | 104 nM | 97.9 nM | 136 nM | 93.7 nM
COc1ncc(-c2nc3c(n2C(C)C)C(c2ccc(Cl)cc2)N(c2cc(C)c4onc(C)c4c2)C3=O)c(OC)n1 (stereo not drawn) [Example 34, 6-(4-chlorophenyl)-2-(2,4-dimethoxypyrimidin-5-yl)-5-(3,7-dimethylbenzo[d]-isoxazol-5-yl)-1-isopropyl-5,6-dihydropyrrolo[3,4-d]imidazol-4(1H)-one] | 65.2 nM | 1670 nM | 219 nM | >10000 nM | 64.9 nM | 109 nM | 98.2 nM | 36.6 nM | 76.6 nM | 76.5 nM
COc1ccc(-c2nc3c(n2C(C)C)C(c2ccc(Cl)cc2)N(c2cc(C)c4onc(C)c4c2)C3=O)cn1 (stereo not drawn) [Example 35, 6-(4-chlorophenyl)-5-(3,7-dimethylbenzo[d]isoxazol-5-yl)-1-isopropyl-2-(6-methoxypyridin-3-yl)-5,6-dihydropyrrolo[3,4-d]imidazol-4(1H)-one] | 21 nM | > 37000 nM | 946 nM | >10000 nM | 289 nM | 462 nM | 43 nM | 226 nM | 384 nM | 35 nM
CCCn1c(-c2cc(OC)ncc2F)nc2c1C(=O)N(c1cc(C)c(=O)n(C)c1)C2c1ccc(Cl)cc1 (stereo not drawn) [Example 36, 6-(4-chlorophenyl)-5-(1,5-dimethyl-6-oxo-1,6-dihydropyridin-3-yl)-2-(5-fluoro-2-methoxypyridin-4-yl)-3-propyl-5,6-dihydropyrrolo[3,4-d]imidazol-4(3H)-one] | 150 nM | 2500 nM | 250 nM | >10000 nM | 115 nM | 235 nM | 164 nM | 59.8 nM | 104 nM | 160 nM
CCCn1c(-c2cncc(C#N)c2)nc2c1C(=O)N(c1cc(C)c(=O)n(C)c1)C2c1ccc(Cl)cc1 (stereo not drawn) [Example 37, 5-(4-(4-chlorophenyl)-5-(1,5-dimethyl-6-oxo-1,6-dihydropyridin-3-yl)-6-oxo-1-propyl-1,4,5,6-tetrahydropyrrolo[3,4-d]imidazol-2-yl)nicotinonitrile] | 166 nM | 4100 nM | 320 nM | >10000 nM | 100 nM | 195 nM | 274 nM | 66.9 nM | 105 nM | 164 nM
COc1ncccc1-c1nc2c(n1C(C)C)C(=O)N(c1cc(C)c(=O)n(C)c1)C2c1ccc(Cl)cc1 (stereo not drawn) [Example 44, 6-(4-chlorophenyl)-5-(1,5-dimethyl-6-oxo-1,6-dihydropyridin-3-yl)-3-isopropyl-2-(2-methoxypyridin-3-yl)-5,6-dihydropyrrolo[3,4-d]imidazol-4(3H)-one] | 39 nM | 1000 nM |  |  |  |  | 33 nM |  |  | 39 nM
CCn1c(C)nc2c1[C@@H](c1ccc(Cl)cc1)N(c1cc(C)c3nnn(C)c3c1)C2=O [Example 120, (R)-6-(4-chlorophenyl)-5-(3,7-dimethyl-3H-benzo[d][1,2,3]triazol-5-yl)-1-ethyl-2-methyl-5,6-dihydropyrrolo[3,4-d]imidazol-4(1H)-one] | 20.5 nM | 5130 nM |  |  |  |  | 35.5 nM |  |  | 29.5 nM
CCn1c(C)nc2c1C(=O)N(c1cc(C)c3nnn(C)c3c1)[C@@H]2c1ccc(Cl)cc1 [Example 122, (R)-6-(4-chlorophenyl)-5-(3,7-dimethyl-3H-benzo[d][1,2,3]triazol-5-yl)-3-ethyl-2-methyl-5,6-dihydropyrrolo[3,4-d]imidazol-4(3H)-one] | 19 nM | 2620 nM |  |  |  |  | 21.5 nM |  |  | 26 nM
COc1ncccc1-c1nc2c([nH]1)C(c1ccc(Cl)cc1)N(c1cc(C)c3nnc(C)n3c1)C2=O (stereo not drawn) [Example 123, 6-(4-chlorophenyl)-5-(3,8-dimethyl-[1,2,4]triazolo[4,3-a]pyridin-6-yl)-2-(2-methoxypyridin-3-yl)-5,6-dihydropyrrolo[3,4-d]imidazol-4(1H)-one] | 65 nM | 5500 nM |  |  |  |  | 97 nM |  |  | 87 nM
COc1ncccc1-c1nc2c([nH]1)[C@@H](c1ccc(Cl)cc1)N(c1cc(C)c3nnc(C)n3c1)C2=O [Example 142, (R)-6-(4-chlorophenyl)-5-(3,8-dimethyl-[1,2,4]triazolo[4,3-a]pyridin-6-yl)-2-(2-methoxypyridin-3-yl)-5,6-dihydropyrrolo[3,4-d]imidazol-4(1H)-one] | 40 nM | 1750 nM |  |  |  |  | 96 nM |  |  | 36 nM
